Measurements reported in patent publication US20250002507A1, “7,8-DIHYDRO-5H-1,6-NAPHTHYRIDINE DERIVATIVES AS POSITIVE ALLOSTERIC MODULATORS OF THE MUSCARINIC ACETYLCHOLINE RECEPTOR M4 FOR TREATING NEUROLOGICAL AND PSYCHIATRIC DISORDERS” (Vanderbilt University, priority 2021, published 2025).
pEC50: −log10 of the molar value.

Target: T1, Human M4 (Homo sapiens, UniProt P08173)
T1 construct: expressed in transfected cells
T1 sequence (P08173 1-479): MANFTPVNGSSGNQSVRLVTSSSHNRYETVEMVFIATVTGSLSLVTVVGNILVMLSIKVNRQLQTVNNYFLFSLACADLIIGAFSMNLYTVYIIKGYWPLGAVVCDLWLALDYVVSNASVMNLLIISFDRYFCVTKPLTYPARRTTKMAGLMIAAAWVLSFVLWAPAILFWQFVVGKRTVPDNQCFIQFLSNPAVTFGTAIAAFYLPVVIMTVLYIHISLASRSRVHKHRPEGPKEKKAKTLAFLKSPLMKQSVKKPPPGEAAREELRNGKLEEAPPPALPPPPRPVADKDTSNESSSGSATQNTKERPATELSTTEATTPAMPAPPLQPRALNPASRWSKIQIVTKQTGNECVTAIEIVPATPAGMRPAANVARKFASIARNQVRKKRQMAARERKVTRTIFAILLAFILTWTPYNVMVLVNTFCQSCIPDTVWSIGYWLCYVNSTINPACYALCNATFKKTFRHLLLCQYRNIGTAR
Assay: mAChR M4 cell-based functional assay (calcium flux, potentiation of EC20 acetylcholine response), hM4-Gqi5 CHO-K1 cells
Settings: Table 3; for Emax at 30 µM: CHO-K1, Human M4, % ACh maximum at 30 μM, read-out: Emax (% ACh maximum at 30 μM); for pEC50: potentiation of EC20 acetylcholine response, calcium flux, CHO-K1 cells, read-out: Human M4 EC50
Outline: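 Positive allosteric modulation was scored as a concentration-dependent rise in the response to an EC20 dose of acetylcholine, added 144 s after the compound. Human M4-Gqi5 CHO-K1 cells carried Fluo-4 dye, and compounds ran as 11-point, 3-fold dilution series. EC50 and Emax came from four-parameter logistic fits of the FDSS fluorescence-ratio traces.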

SMILES | Emax at 30 µM [%] | pEC50
Cc1c(N2CCc3ncc(-c4ccc(N(C)C)nc4)cc3C2)nn2cnnc2c1C [Compound 180, 5-(6-(7,8-dimethyl-[1,2,4]triazolo[4,3-b]pyridazin-6-yl)-5,6,7,8-tetrahydro-1,6-naphthyridin-3-yl)-N,N-dimethylpyridin-2-amine] | 74 | 6.55
Cc1c(N2CCc3ncc(-c4cc(F)cnc4Cl)cc3C2)nn2cnnc2c1C [Compound 181, 3-(2-chloro-5-fluoropyridin-3-yl)-6-(7,8-dimethyl-[1,2,4]triazolo[4,3-b]pyridazin-6-yl)-5,6,7,8-tetrahydro-1,6-naphthyridine] | 95 | 6.27
Cc1c(N2CCc3ncc(-c4cccnc4F)cc3C2)nn2cnnc2c1C [Compound 183, 6-(7,8-dimethyl-[1,2,4]triazolo[4,3-b]pyridazin-6-yl)-3-(2-fluoropyridin-3-yl)-5,6,7,8-tetrahydro-1,6-naphthyridine] | 93 | 6.16
CC(=O)c1cnc2c(c1)CN(c1nn3cnnc3c(C)c1C)CC2 [Compound 184, 1-(6-(7,8-dimethyl-[1,2,4]triazolo[4,3-b]pyridazin-6-yl)-5,6,7,8-tetrahydro-1,6-naphthyridin-3-yl)ethan-1-one] | 96 | 6.15
Cc1c(N2CCc3ncc(-c4ccc(N5CCCCC5)nc4)cc3C2)nn2cnnc2c1C [Compound 185, 6-(7,8-dimethyl-[1,2,4]triazolo[4,3-b]pyridazin-6-yl)-3-(6-(piperidin-1-yl)pyridin-3-yl)-5,6,7,8-tetrahydro-1,6-naphthyridine] | 86 | 6.48
Cc1c(N2CCc3ncc(-c4ccc(N5CCN(C)CC5)nc4)cc3C2)nn2cnnc2c1C [Compound 187, 6-(7,8-dimethyl-[1,2,4]triazolo[4,3-b]pyridazin-6-yl)-3-(6-(4-methylpiperazin-1-yl)pyridin-3-yl)-5,6,7,8-tetrahydro-1,6-naphthyridine] | 104 | 7.20
Cc1cc2nncn2nc1N1CCc2ncc(Nc3ccnn3C)cc2C1 [Compound 190, N-(1-methyl-1H-pyrazol-5-yl)-6-(7-methyl-[1,2,4]triazolo[4,3-b]pyridazin-6-yl)-5,6,7,8-tetrahydro-1,6-naphthyridin-3-amine] | 102 | 6.63
Cc1c(N2CCc3ncc(-c4ccc(-n5cccn5)nc4)cc3C2)nn2cnnc2c1C [Compound 191, 3-(6-(1H-pyrazol-1-yl)pyridin-3-yl)-6-(7,8-dimethyl-[1,2,4]triazolo[4,3-b]pyridazin-6-yl)-5,6,7,8-tetrahydro-1,6-naphthyridine] | 66 | 6.47

Further lines, results first:

Emax at 30 µM [%] | pEC50 | SMILES
42 | 5.96 | Cc1c(N2CCc3ncc(-c4cccnc4OC(C)C)cc3C2)nn2cnnc2c1C [Compound 182, 6-(7,8-dimethyl-[1,2,4]triazolo[4,3-b]pyridazin-6-yl)-3-(2-isopropoxypyridin-3-yl)-5,6,7,8-tetrahydro-1,6-naphthyridine]
100 | 6.85 | Cc1c(N2CCc3ncc(-c4ccc(N5CCOCC5)nc4)cc3C2)nn2cnnc2c1C [Compound 186, 4-(5-(6-(7,8-dimethyl-[1,2,4]triazolo[4,3-b]pyridazin-6-yl)-5,6,7,8-tetrahydro-1,6-naphthyridin-3-yl)pyridin-2-yl)morpholine]
69 | 6.28 | Cc1cc2nccn2nc1N1CCc2ncc(C(F)(F)F)cc2C1 [Compound 188, 6-(7-methylimidazo[1,2-b]pyridazin-6-yl)-3-(trifluoromethyl)-5,6,7,8-tetrahydro-1,6-naphthyridine]
103 | 7.05 | Cc1c(N2CCc3ncc(C(F)F)cc3C2)nn2cnnc2c1C [Compound 189, 3-(difluoromethyl)-6-(7,8-dimethyl-[1,2,4]triazolo[4,3-b]pyridazin-6-yl)-5,6,7,8-tetrahydro-1,6-naphthyridine]
